Data on 7 molecules can be found in patent US8574837B2, “System for screening agonists/antagonists of cellular signaling pathways” (President and Fellows of Harvard College, priority 2008, dated 2013).

The target in test [1] is T1, Smo (Homo sapiens, UniProt Q99835).
T1 construct: expressed in transfected cells; host or cells: NIH/3T3 (mouse fibroblasts), retroviral infection with pBabe-A1::Smo::GFP, clonal lines
Kind of test: Smo translocation assay (A1::Smo::GFP / Smo colocalization with Arl13b at the primary cilium). Particulars: for Smo translocation to the primary cilium, agent applied alone: NIH/3T3 cells, ShhN 25 nM, SAG 200 nM, purmorphamine, 20-OHC, cyclopamine, GANT61 10 μM, SANT-1, SANT-2 1 μM, 24 hr; for ShhN-dependent translocation of Smo to the primary cilium, antagonist plus ShhN: ShhN 25 nM plus SANT-1 or SANT-2 1 μM or GANT61 10 μM, FIG. 6. It counts as cell-based. On the procedure:
All 3T3 cell lines were plated at a density of 1×10^4 cells per well in fibronectin coated Lab-Tek™ Chamber Slides (Nunc, 178599). The cells were grown to confluence, then switched to […] containing 0.5% BCS with indicated treatments for 24 hr or as stated elsewhere herein. Immunostaining was performed after fixation in 4% Paraformaldehyde (PFA) according to standard protocols. AcpS labeling reactions were performed as described previously (Zhou et al., 2007). Fluorescent images were collected after fixing samples using a Zeiss LSM510 META on an inverted microscope, with a 63× (1.4 NA) oil-immersion objective lens utilizing four laser lines (405 nm, 488 nm, 543 nm, 633 nm).
Mouse recombinant ShhN purified protein was purchased from R&D Systems (#464-SH-025). SAG, SANT-2, and GANT61 were purchased from Axxora (#ALX-270-426, #ALX-270-436, #ALX-270-482; Axxora, LLC, San Diego, Calif.). SANT-1 was obtained from Tocris Bioscience (#1974). DMSO was from Sigma Aldrich (D2650). Purmorphamine was from Calbiochem (#540220). […] AcpS, Texas Red-CoA, and Alexa633-CoA were prepared as described previously (Zhou et al., 130 J. Am. Chem. Soc. 9925-30 (2008)).

For the next test, the system named is Hh signaling. Kind of test: Gli-luciferase assay (Ptch1-promoter driven luciferase reporter). It counts as cell-based, mouse. The following applies: NIH/3T3 cells, RNAi knock down of suFU; FIG. 3. On the procedure: Cells were plated at a density of 5×10^4 per well in 24-well plates 18 hr prior to transfection. DNA transfection was performed using Lipofectamine™ 2000 transfection reagent (Invitrogen, #11668); the DNA introduced in each well included 100 ng CMV driven Renilla luciferase construct, 300 ng Ptch1 promoter-driven firefly luciferase construct, and 400 ng of each shRNA construct or a PBS plasmid as a control. Cells were grown for two days; then the medium was changed to DMEM containing 0.5% BCS and proteins/compounds indicated in the text. Cells were cultured for an additional 48 hr, tryspinized, lysed and assayed using a Promega Dual Luciferase Reporter Essay System Kit (E1910). Renilla luciferase signal was used to normalize the firefly luciferase signal. The RNAi efficiency was measured as previous described (Varjosalo et al., 2006). In all luciferase assays, every condition was repeated in quadruplicate wells and experiments were repeated at least three times.
Mouse recombinant ShhN purified protein was purchased from R&D Systems (#464-SH-025). SAG, SANT-2, and GANT61 were purchased from Axxora (#ALX-270-426, #ALX-270-436, #ALX-270-482; Axxora, LLC, San Diego, Calif.). SANT-1 was obtained from Tocris Bioscience (#1974). DMSO was from Sigma Aldrich (D2650). Purmorphamine was from Calbiochem (#540220). […]

The target in the next test is T2, Gli1 (Homo sapiens, UniProt P08151).
T2 sequence (P08151 1-1106): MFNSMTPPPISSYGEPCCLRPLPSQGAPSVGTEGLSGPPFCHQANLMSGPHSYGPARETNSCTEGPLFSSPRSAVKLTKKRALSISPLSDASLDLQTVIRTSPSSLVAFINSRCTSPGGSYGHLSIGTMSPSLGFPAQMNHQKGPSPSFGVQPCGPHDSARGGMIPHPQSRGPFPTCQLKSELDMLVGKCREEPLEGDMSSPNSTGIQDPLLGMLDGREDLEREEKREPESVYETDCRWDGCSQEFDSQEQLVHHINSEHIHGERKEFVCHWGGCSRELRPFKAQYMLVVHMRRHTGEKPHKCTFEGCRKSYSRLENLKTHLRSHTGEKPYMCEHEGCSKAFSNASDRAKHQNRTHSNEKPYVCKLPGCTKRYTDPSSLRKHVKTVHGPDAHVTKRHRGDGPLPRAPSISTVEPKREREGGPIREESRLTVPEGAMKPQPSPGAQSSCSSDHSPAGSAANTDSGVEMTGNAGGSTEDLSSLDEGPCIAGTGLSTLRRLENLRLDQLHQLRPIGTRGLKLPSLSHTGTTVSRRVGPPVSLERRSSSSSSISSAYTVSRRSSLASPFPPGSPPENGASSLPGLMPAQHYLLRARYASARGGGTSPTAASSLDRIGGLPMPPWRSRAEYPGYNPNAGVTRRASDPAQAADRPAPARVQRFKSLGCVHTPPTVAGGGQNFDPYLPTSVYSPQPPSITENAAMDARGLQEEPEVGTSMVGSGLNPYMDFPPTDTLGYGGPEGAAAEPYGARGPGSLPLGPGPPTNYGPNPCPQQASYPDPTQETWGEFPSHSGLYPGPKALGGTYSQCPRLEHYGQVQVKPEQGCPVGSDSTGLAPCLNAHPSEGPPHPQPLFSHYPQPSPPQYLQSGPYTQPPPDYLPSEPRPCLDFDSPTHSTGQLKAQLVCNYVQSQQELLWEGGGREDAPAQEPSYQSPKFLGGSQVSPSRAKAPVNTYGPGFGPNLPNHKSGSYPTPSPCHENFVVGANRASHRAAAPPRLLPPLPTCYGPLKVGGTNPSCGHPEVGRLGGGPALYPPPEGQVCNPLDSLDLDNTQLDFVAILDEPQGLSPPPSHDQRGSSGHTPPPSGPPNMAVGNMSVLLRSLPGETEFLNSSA
Particulars: cited from earlier work.

Test [2] addresses Smo (Mus musculus, UniProt P56726). Particulars: cited from earlier work.
A further test concerns SmoA1. Particulars: cited from earlier work.
Test [3] concerns UV-irradiated Ptch1^+/− mice. The following applies: prolonged systemic treatment; cited from earlier work.

T1 sequence (Q99835 28-787): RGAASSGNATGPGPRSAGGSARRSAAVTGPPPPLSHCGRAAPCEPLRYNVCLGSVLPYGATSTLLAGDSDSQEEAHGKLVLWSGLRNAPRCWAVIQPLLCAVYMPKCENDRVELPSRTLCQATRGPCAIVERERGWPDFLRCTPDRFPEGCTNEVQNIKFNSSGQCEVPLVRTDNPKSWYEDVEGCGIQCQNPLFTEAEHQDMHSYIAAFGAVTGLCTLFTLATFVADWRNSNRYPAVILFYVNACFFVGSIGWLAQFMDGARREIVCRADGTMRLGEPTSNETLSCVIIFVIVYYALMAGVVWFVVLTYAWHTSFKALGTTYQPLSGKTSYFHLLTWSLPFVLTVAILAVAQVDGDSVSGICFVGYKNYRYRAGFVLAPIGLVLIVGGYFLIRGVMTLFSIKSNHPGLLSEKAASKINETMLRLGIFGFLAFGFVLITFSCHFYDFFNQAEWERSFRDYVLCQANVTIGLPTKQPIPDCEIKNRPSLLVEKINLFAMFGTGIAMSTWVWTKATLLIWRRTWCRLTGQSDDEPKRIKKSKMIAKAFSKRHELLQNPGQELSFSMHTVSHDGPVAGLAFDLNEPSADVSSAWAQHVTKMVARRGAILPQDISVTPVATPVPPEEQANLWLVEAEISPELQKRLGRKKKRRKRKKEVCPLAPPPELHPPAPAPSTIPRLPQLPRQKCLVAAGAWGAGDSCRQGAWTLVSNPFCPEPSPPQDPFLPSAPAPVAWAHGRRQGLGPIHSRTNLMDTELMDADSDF
Chain of Smo (Mus musculus, UniProt P56726) (P56726 33-793): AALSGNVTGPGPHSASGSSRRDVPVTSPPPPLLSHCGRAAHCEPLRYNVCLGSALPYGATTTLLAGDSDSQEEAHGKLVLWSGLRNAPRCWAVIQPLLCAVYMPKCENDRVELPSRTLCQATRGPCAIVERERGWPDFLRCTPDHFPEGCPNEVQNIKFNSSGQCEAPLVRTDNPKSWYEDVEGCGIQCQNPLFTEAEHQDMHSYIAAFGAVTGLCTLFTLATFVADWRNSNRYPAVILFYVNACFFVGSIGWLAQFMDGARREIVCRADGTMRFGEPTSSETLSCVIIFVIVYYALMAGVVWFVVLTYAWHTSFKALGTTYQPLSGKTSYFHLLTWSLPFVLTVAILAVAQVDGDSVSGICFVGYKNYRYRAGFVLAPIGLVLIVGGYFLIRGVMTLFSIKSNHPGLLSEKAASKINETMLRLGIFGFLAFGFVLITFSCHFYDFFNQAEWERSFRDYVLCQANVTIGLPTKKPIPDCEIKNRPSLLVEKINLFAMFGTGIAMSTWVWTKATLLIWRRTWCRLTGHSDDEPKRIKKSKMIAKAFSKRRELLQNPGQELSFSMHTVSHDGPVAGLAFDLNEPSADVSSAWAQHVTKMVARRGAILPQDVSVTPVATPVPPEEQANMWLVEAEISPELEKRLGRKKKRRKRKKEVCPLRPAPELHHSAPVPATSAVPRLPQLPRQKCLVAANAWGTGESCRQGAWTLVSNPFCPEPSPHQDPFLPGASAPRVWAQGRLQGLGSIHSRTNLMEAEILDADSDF

Regarding `c1ccc2c(Oc3nc(Nc4ccc(N5CCOCC5)cc4)c4ncn(C5CCCCC5)c4n3)cccc2c1` [purmorphamine], on Smo [1], the “Smo translocation to the primary cilium, agent applied alone” value (shortened to “Smo translocation to the primary cilium”) was “Smo translocated to the primary cilium”.
Consider `CN(C)c1ccccc1CN1CCCN(Cc2ccccc2N(C)C)C1c1ccncc1` [GANT61], for which the “Gli activity when the endogenous Gli antagonist suFU was knocked down” value in the test with Hh signaling was “inhibited Gli activity”. Besides, the “Gli1 binding to DNA” value at Gli1 is given as “inhibits Gli1 binding to DNA”. Also, at Smo [1], the “Smo translocation to the primary cilium” value was “do not induce obvious localization change of Smo” and the “ShhN-dependent translocation of Smo to the primary cilium, antagonist plus ShhN” value (shortened to “ShhN-dependent translocation of Smo”) is recorded as “abrogate the ShhN-dependent translocation of Smo to the primary cilium”.
Take `Cc1nn(-c2ccccc2)c(C)c1/C=N/N1CCN(Cc2ccccc2)CC1` [SANT-1]: the “Competition for cyclopamine binding of Smo” value at Smo [2] is “compete for cyclopamine binding of Smo”. For the same molecule, in the test with SmoA1, the “Inhibition of SmoA1 activity, dose relative to wild-type Smo” value was “at a comparable dose to that required to inhibit wild-type Smo”. In addition, on Smo [1], the “Smo translocation to the primary cilium” value was “do not induce obvious localization change of Smo” and the “ShhN-dependent translocation of Smo” value is on record as “abrogate the ShhN-dependent translocation of Smo to the primary cilium”.
As to `CNC1CCC(N(Cc2cccc(-c3ccncc3)c2)C(=O)c2sc3ccccc3c2Cl)CC1` (centres unmarked) [SAG], at Smo [1], the “Smo translocation to the primary cilium” value is reported as “Smo translocated to the primary cilium”.
As for `CCOc1cc(C(=O)Nc2ccc(Cl)c(-c3nc4ccccc4[nH]3)c2)cc(OCC)c1OCC` [SANT-2], the “Competition for cyclopamine binding of Smo” value at Smo [2] is reported as “compete for cyclopamine binding of Smo”. For the same molecule, the “Inhibition of SmoA1 activity, dose relative to wild-type Smo” value with SmoA1 is listed as “at a comparable dose to that required to inhibit wild-type Smo”. Moreover, at Smo [1], the “Smo translocation to the primary cilium” value is “do not induce obvious localization change of Smo” and the “ShhN-dependent translocation of Smo” value was “abrogate the ShhN-dependent translocation of Smo to the primary cilium”.
Turning to `CC(C)CCC[C@](C)(O)[C@H]1CC[C@H]2[C@@H]3CC=C4C[C@@H](O)CC[C@]4(C)[C@H]3CC[C@@]21C` [20-OHC, 20α-hydroxycholesterol], the “Smo translocation to the primary cilium” value at Smo [1] is given as “Smo translocated to the primary cilium”.
In the case of `CC1=C2C[C@H]3[C@@H](CC=C4C[C@@H](O)CC[C@@]43C)[C@@H]2CC[C@]12O[C@@H]1C[C@H](C)CN[C@H]1[C@H]2C` [cyclopamine], the Tumor formation entry in test [3] is listed as “significantly diminish tumor formation”. For the same molecule, the “Smo translocation to the primary cilium” value on Smo [1] is reported as “drove Smo to the primary cilium”.
